Results from patent US11104664B2, “4,5,6-trisubstituted indazole derivatives, and preparation method and pharmaceutical use thereof” (SHANGHAI HAIYAN PHARMACEUTICAL TECHNOLOGY CO., LTD., priority 2016, dated 2021).

How the values were obtained:
[1] = molecular target: Recombinant PRC2 (EZH2-Y641F) (Homo sapiens (Human), UniProt Q15910, Y641F); test: In vitro methyltransferase activity assay (LANCE Ultra); assay type: biochemical; conditions: for IC50: 2.5 μM SAM/250 nM H3(1-50)K27me1, 3 hours, room temperature; for inhibitory activity against the enzyme (in words): SAR comment on Table 1, reduced relative to comparator compounds (P-7, P-13/14)
Sequence of Recombinant PRC2 (EZH2-Y641F) (Q15910 whole entry Y641F): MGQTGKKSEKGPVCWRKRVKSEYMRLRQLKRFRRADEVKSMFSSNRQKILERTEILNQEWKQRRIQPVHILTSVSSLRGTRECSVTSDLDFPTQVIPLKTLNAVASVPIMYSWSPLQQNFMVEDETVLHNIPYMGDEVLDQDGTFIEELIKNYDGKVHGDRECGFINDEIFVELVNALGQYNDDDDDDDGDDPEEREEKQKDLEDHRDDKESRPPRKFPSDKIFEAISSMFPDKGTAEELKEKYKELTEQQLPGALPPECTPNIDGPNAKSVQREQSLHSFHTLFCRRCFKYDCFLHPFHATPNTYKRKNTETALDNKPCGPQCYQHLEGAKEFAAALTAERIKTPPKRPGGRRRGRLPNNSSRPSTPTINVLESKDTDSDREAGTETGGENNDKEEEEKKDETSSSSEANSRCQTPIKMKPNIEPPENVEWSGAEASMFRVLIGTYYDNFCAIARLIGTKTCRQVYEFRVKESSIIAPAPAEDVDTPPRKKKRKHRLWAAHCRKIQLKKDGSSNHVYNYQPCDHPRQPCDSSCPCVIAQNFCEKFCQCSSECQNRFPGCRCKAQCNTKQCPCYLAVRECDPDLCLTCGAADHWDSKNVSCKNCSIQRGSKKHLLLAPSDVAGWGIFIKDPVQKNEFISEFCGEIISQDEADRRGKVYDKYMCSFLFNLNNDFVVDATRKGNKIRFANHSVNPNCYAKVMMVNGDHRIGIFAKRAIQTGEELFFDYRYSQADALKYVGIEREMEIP
Sequence of Recombinant PRC2 (EZH2-Y641F) (O75530 whole entry partner): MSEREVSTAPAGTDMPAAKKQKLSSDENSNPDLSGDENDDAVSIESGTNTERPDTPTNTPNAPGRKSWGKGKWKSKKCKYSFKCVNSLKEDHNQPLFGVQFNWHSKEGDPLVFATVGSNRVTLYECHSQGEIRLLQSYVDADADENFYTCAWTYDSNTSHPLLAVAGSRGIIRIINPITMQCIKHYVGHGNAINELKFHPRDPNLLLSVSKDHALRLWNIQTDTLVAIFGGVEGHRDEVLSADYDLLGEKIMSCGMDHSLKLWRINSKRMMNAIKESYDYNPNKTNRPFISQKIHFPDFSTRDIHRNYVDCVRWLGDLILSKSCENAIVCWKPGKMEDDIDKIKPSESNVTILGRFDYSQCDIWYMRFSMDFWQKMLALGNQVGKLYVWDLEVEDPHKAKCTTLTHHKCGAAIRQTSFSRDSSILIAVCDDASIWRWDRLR
Sequence of Recombinant PRC2 (EZH2-Y641F) (Q15022 whole entry partner): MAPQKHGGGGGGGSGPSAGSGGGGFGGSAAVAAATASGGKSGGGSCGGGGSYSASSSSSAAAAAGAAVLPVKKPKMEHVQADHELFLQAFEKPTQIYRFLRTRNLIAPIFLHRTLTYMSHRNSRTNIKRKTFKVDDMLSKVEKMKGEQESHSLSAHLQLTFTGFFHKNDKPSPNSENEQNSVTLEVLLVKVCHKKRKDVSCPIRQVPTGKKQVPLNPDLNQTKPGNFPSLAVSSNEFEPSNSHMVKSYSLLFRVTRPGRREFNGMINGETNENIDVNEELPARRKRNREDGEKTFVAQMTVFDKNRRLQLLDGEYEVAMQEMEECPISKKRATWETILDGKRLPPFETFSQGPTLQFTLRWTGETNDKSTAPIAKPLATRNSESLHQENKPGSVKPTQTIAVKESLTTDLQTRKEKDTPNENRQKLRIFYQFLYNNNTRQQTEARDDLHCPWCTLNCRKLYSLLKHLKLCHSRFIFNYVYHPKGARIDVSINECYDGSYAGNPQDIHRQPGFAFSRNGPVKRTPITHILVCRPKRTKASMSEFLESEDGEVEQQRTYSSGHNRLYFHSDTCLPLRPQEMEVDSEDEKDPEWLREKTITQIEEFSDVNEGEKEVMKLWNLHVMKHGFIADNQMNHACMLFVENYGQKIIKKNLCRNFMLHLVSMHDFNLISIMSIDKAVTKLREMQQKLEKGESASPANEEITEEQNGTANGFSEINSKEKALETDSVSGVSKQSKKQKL
Sequence of Recombinant PRC2 (EZH2-Y641F) (Q09028 whole entry partner): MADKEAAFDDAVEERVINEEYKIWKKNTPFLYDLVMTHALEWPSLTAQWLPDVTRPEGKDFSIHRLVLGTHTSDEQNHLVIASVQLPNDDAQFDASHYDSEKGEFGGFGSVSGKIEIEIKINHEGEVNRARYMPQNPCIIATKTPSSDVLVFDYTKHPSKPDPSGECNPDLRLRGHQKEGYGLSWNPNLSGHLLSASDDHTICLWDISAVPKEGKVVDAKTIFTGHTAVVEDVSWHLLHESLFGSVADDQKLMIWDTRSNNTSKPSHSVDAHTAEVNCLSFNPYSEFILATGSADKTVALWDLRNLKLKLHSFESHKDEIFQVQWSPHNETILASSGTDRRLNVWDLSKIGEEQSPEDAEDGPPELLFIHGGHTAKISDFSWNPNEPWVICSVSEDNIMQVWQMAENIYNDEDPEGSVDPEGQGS
Sequence of Recombinant PRC2 (EZH2-Y641F) (Q6ZN18 whole entry partner): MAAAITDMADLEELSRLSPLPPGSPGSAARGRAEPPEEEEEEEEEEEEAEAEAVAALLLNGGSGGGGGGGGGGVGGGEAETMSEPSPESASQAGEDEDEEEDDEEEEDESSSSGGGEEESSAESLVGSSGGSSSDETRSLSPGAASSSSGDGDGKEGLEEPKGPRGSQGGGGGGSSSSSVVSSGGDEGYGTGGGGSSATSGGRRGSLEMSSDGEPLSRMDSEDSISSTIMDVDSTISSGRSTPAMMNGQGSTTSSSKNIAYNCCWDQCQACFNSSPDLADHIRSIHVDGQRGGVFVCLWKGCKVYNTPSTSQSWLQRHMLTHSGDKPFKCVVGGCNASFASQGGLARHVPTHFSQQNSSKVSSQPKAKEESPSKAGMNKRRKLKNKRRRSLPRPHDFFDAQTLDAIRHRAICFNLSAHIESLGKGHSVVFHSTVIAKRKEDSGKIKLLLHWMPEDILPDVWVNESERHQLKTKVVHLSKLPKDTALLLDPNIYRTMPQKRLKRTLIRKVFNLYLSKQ
Protocol: Recombinant PRC2 (EZH2-Y641F) was purchased from Active motif, S-adenosyl-methionine (SAM) and Poly-L-lysine (PLL) were purchased from Sigma-Aldrich, and H3(1-50)K27me1 peptide was purchased from Cisbio. LANCEUltrasystem (Perkinelmer) was used for detection system. In the enzyme activity test, compounds to be tested were diluted by 8 gradient points in a ratio of 1:3, and added into each well in a reaction plate, and 100 ng recombinase was added, followed by a buffer [20 mM Tris pH8.5, 2 mM MgCl2, 0.01% Tween-20, 1 mM TCEP] containing 2.5 μM SAM/250 nM H3 (1-50)K27me1 premixtures. Enzymatic reaction thus began at room temperature. After reacted for 3 hours, a detection solution premixed with PLL, detection antibody and Ulight was added, and reacted for 1 hour at room temperature. The fluorescence value was then read on a Tecan infinite pro. IC50 was calculated by fitting in a four-factor model in the XLfit software.

[2] = tested on: Pfeiffer cells; test: Cell proliferation assay (Cell counting kit-8, 6 days); assay type: cell-based; conditions: Pfeiffer (CRL-2632), 6 days culture
Protocol: The used cell lines Pfeiffer (CRL-2632), suDHL-6 (CRL-2959) and suDHL-10 (CRL-2963) were obtained from American Type Culture Collection (ATCC). All cell lines were cultured in RPMI-1640 medium (Gibco) containing 10% fetal bovine serum (Gibco). The cultured cells were harvested by centrifugation and the cell density was determined using a CounterStar cell counter. Appropriate number of cells were plated in a 96-well culture plate and incubated overnight. Compounds to be tested were diluted by 8 gradient points in a ratio of 1:3 and added into corresponding wells. After continuing to culture for 6 days, the number of viable cells was measured with Cell counting kit-8, and the absorbance value was read on Tecan infinite pro. The IC50 was calculated by fitting in a four-parameter model in the XLfit software.

Compound	IC50 [1]	inhibitory activity against the enzyme (in words) [1]	IC50 ([2]; Homo sapiens, 144 h)	IC50 [2]
7-(ethyl(tetrahydro-2H-pyran-4-yl)amino)-N-((4-methoxy-6-methyl-2-oxo-1,2-dihydropyridin-3-yl)methyl)-1,6-dimethyl-1H-imidazole-5-carboxamide [P-4]	502 nM	significantly reduced	–	–
CCN(c1cc(C(=O)NCc2c(C)cc(C)[nH]c2=O)c(C)c2c1cnn2C)C1CCOCC1 [D1, N-((4,6-dimethyl-2-oxo-1,2-dihydropyridin-3-yl)methyl)-4-(ethyl(tetrahydro-2H-pyran-4-yl)amino)-1,7-dimethyl-1H-indazole-6-carboxamide, reference compound]	> 10000 nM	–	> 10000 nM	–
CCN(c1c(C)c(C(=O)NCc2c(OC)cc(C)[nH]c2=O)cc2c1cnn2C)C1CCOCC1 [P-1, 4-(ethyl (tetrahydro-2H-pyran-4-yl)amino)-N-((4-methoxy-6-methyl-2-oxo-1,2-dihydropyridin-3-yl)methyl)-1,5-dimethyl-1H-indazole-6-carboxamide]	25 nM	–	93 nM	–
CCN(c1c(C)c(C(=O)NCc2c(OC)cc(C)[nH]c2=O)cc2[nH]ncc12)C1CCOCC1 [P-2, 4-(ethyl(tetrahydro-2H-pyran-4-yl)amino)-N-((4-methoxy-6-methyl-2-oxo-1,2-dihydropyridin-3-yl)methyl)-5-methyl-1H-indazole-6-carboxamide]	24 nM	–	–	–
CCN(c1c(C)c(C(=O)NCc2c(OC)cc(C)[nH]c2=O)cc2cn[nH]c12)C1CCOCC1 [P-3, 7-(ethyl(tetrahydro-2H-pyran-4-yl)amino)-N-((4-methoxy-6-methyl-2-oxo-1,2-dihydropyridin-3-yl)methyl)-6-methyl-1H-imidazole-5-carboxamide]	154 nM	significantly reduced	–	–
CCN(c1c(C)c(C(=O)NCc2c(OC)cc(C)[nH]c2=O)cc2c1cnn2C(F)F)C1CCOCC1 [P-5, 1-(difluoromethyl)-4-(ethyl(tetrahydro-2H-pyran-4-yl)amino)-N-((4-methoxy-6-methyl-2-oxo-1,2-dihydropyridin-3-yl)methyl)-5-methyl-1H-indazole-6-carboxamide]	–	–	71 nM	–
CCN(c1c(C)c(C(=O)NCc2c(C)cc(C)[nH]c2=O)cc2c1cnn2C)C1CCOCC1 [P-7, N-((4,6-dimethyl-2-oxo-1,2-dihydropyridin-3-yl)methyl)-4-(ethyl(tetrahydro-2H-pyran-4-yl)amino)-1,5-dimethyl-1H-indazole-6-carboxamide]	–	–	158 nM	–
CCN(c1c(C)c(C(=O)NCc2c(C)cc(C)[nH]c2=O)cc2c1cnn2C)C1CCN(CC(F)(F)F)CC1 [P-8, N-((4,6-dimethyl-2-oxo-1,2-dihydropyridin-3-yl)methyl)-4-(ethyl(1-(2,2,2-trifluoroethyl)piperidin-4-yl)amino)-1,5-dimethyl-1H-indazole-6-carboxamide]	53 nM	–	–	–
CCN(c1c(C)c(C(=O)NCc2c(C)cc(C)[nH]c2=O)cc2c1cnn2C)C1CCC(N(C)CCOC)CC1 (stereo not drawn) [P-9, N-((4,6-dimethyl-2-oxo-1,2-dihydropyridin-3-yl)methyl)-4-(ethyl (4-((2-methoxyethyl)(methyl)amino)cyclohexyl)amino)-1,5-dimethyl-1H-indazole-6-carboxamide]	9 nM	–	32 nM	–
CCN(c1c(C)c(C(=O)NCc2c(C)cc(C)[nH]c2=O)cc2c1cnn2C(F)F)C1CCOCC1 [P-10, 1-(difluoromethyl)-N-((4,6-dimethyl-2-oxo-1,2-dihydropyridin-3-yl)methyl)-4-(ethyl(tetrahydro-2H-pyran-4-yl)amino)-5-methyl-1H-indazole-6-carboxamide]	61 nM	–	141 nM	–
CCN(c1c(C)c(C(=O)NCc2c(OC)cc(C)[nH]c2=O)cc2c1cnn2C)C1CCN(CC(F)(F)F)CC1 [P-11, 4-(ethyl(1-(2,2,2-trifluoroethyl)piperidin-4-yl)amino)-N-((4-methoxy-6-methyl-2-oxo-1,2-dihydropyridin-3-yl)methyl)-1,5-dimethyl-1H-indazole-6-carboxamide]	13 nM	–	292 nM	–
CCN(c1c(C)c(C(=O)NCc2c(OC)cc(C)[nH]c2=O)cc2nn(C)cc12)C1CCN(CC(F)(F)F)CC1 [P-12, 4-(ethyl(1-(2,2,2-trifluoroethyl)piperidin-4-yl)amino)-N-((4-methoxy-6-methyl-2-oxo-1,2-dihydropyridin-3-yl)methyl)-2,5-dimethyl-2H-indazole-6-carboxamide]	117 nM	–	–	–
CCN(c1c(C)c(C(=O)NCc2c(C)cc(C)[nH]c2=O)cc2c1cnn2C)[C@H]1CC[C@@H](N(C)C)CC1 [P-13, N-((4,6-dimethyl-2-oxo-1,2-dihydropyridin-3-yl)methyl)-4-(((1S, 4S)-4-(dimethylamino)cyclohexyl) (ethyl)amino)-1,5-dimethyl-1H-indazole-6-carboxamide]	23 nM	–	–	–
CCN(c1c(C)c(C(=O)NCc2c(C)cc(C)[nH]c2=O)cc2c1cnn2C)[C@H]1CC[C@H](N(C)C)CC1 [P-14, N-((4,6-dimethyl-2-oxo-1,2-dihydropyridin-3-yl)methyl)-4-(((1R, 4R)-4-(dimethylamino)cyclohexyl)(ethyl)amino)-1,5-dimethyl-1H-indazole-6-carboxamide]	5 nM	–	–	212 nM
CCN(c1c(C)c(C(=O)NCc2c(OC)cc(C)[nH]c2=O)cc2c1cnn2C)C1CCC(N(C)CCOC)CC1 (stereo not drawn) [P-15, 4-(ethyl(4-((2-methoxyethyl) (methyl)amino)cyclohexyl)amino)-N-((4-methoxy-6-methyl-2-oxo-1,2-dihydropyridin-3-yl)methyl)-1,5-dimethyl-1H-indazole-6-carb oxamide]	7 nM	–	76 nM	–
CCc1c(C(=O)NCc2c(OC)cc(C)[nH]c2=O)cc2c(cnn2C)c1N(CC)C1CCOCC1 [P-16, 5-ethyl-4-(ethyl(tetrahydro-2H-pyran-4-yl)amino)-N-((4-methoxy-6-methyl-2-oxo-1,2-dihydropyridin-3-yl)methyl)-1-methyl-1H-indazole-6-carboxamide]	8 nM	–	7 nM	–
CCc1c(C(=O)NCc2c(C)cc(C)[nH]c2=O)cc2c(cnn2C)c1N(CC)C1CCOCC1 [P-17, N-((4,6-dimethyl-2-oxo-1,2-dihydropyridin-3-yl)methyl)-5-ethyl-4-(ethyl(tetrahydro-2H-pyran-4-yl)amino)-1-methyl-1H-indazole-6-carboxamide]	8 nM	–	36 nM	–
CCc1c(C(=O)NCc2c(C)cc(C)[nH]c2=O)cc2c(cnn2C)c1N(CC)C1CCC(N2CC(C)C2)CC1 [P-18, N-((4,6-dimethyl-2-oxo-1,2-dihydropyridin-3-yl)methyl)-5-ethyl-4-(ethyl((1S,4S)-4-(3-methylazetiazin-1-yl)cyclohexyl)amino)-1-methyl-1H-indazole-6-carboxamide]	12 nM	–	–	7 nM
CCc1c(C(=O)NCc2c(C)cc(C)[nH]c2=O)cc2c(cnn2C)c1N(CC)[C@H]1CC[C@H](N2CC(OC)C2)CC1 [P-19]	45 nM	–	–	76 nM
CCc1c(C(=O)NCc2c(C)cc(C)[nH]c2=O)cc2c(cnn2C)c1N(CC)C1CCC(N(C)CCOC)CC1 [P-20, N-((4,6-dimethyl-2-oxo-1,2-dihydropyridin-3-yl)methyl)-5-ethyl-4-(ethyl((1S, 4S)-4-((2-methoxyethyl)(methyl)amino)cyclohexyl)amino)-1-methyl-1H-indazole-6-carboxamide]	18 nM	–	–	31 nM
CCN(c1c(C)c(C(=O)NCc2c(C)cc(C)[nH]c2=O)cc2c1cnn2C)C1CCN(C2CCOCC2)CC1 [P-33]	37 nM	–	–	–
CCN(c1c(C)c(C(=O)NCc2c(C)cc(C)[nH]c2=O)cc2c1cnn2CC1CCOC1)C1CCOCC1 (stereo not drawn) [P-40]	–	–	268 nM	–
CCN(c1c(C)c(C(=O)NCc2c(C)cc(C)[nH]c2=O)cc2c1c(C)nn2C)C1CCC(N(C)C)CC1 (stereo not drawn) [P-42]	253 nM	greatly reduced	–	–
CCN(c1c(C)c(C(=O)NCc2c(C)cc(C)[nH]c2=O)cc2c1cnn2C)C1CCC(N(C)CC(F)F)CC1 (stereo not drawn) [P-45, 4-((4-((2,2-difluoroethyl) (methyl)amino)cyclohexyl)(ethyl)amino)-N-((4,6-dimethyl-2-oxo-1,2-dihydropyridin-3-yl)methyl)-1,5-dimethyl-1H-indazole-6-carboxamide]	27 nM	–	–	–
CCN(c1c(C)c(C(=O)NCc2c(C)cc(C)[nH]c2=O)cc2c1cnn2C)C1CCC(C)(N)CC1 (stereo not drawn) [P-46]	53 nM	–	–	–
CCN(c1c(C)c(C(=O)NCc2c(OC)cc(C)[nH]c2=O)cc2nn(C)cc12)C1CCOCC1 [P-50, 4-(ethyl(tetrahydro-2H-pyran-4-yl)amino)-N-((4-methoxy-6-methyl-2-oxo-1,2-dihydropyridin-3-yl)methyl)-2,5dimethyl-2H-indazole-6-carboxamide]	148 nM	significantly reduced	–	–
